Experimental data as given in patent US9593149B2, “Amylin and calcitonin receptor agonist” (Novo Nordisk A/S, priority 2014, dated 2017).
Peptide text beside a SMILES is read from it. * marks the point of attachment. C18 diacid = O=C(O)CCCCCCCCCCCCCCCCC(=O)*

Test: Assay (XVI) T½ and subcutaneous bioavailability in LYD-pigs
Format: in vivo
Method: Assay (XVI)—Determination of T½ and Subcutaneous Bioavailability in LYD-Pigs
Pharmacokinetic (PK) studies in Landrace Yorkshire Duroc crossbreed (LYD) pigs were conducted in order to determine a) the protraction of the mimylin derivative after i.v. administration, and b) the bioavailability of the mimylin derivative after s.c. administration The LYD pig were delivered, treated and acclimatised as described in ASSAY XV above.
In the i.v. and s.c. studies, the mimylin derivative was dissolved in 50 mM phosphate, 70 mM sodium chloride and 0.05% polysorbate 80, pH=8.0 to a concentration of approximately 100 nmol/mL. Animals were dosed with 2 nmol/kg s.c. and 5 nmol/kg i.v.
The animals were dosed subcutaneously or intravenously as follows. […]
The plasma concentration of the respective mimylin derivative was analysed using LC-MS. Individual plasma concentration-time profiles were analysed by a non-compartmental model in Phoenix WinNonlin version 6.3 (Pharsight Inc., Mountain View, Calif., USA).
The resulting terminal half-life was determined based on intravenous administration. T½ is the terminal half-life=In2/λz and was determined from λz, the first order rate constant associated with the terminal (log-linear) portion of the curve, estimated by linear regression of time vs. log concentration.
The absolute bioavailability (F) was calculated as follows: […]

Subcutaneous bioavailability (%) (LYD-pigs): 99%
LYD-pigs iv PK, t½ (i.v., harmonic mean, n = 3): 64 h
SMILES: CC(C)C[C@H](NC(=O)[C@H](C)NC(=O)[C@H](C)NC(=O)[C@@H](NC(=O)[C@H](CO)NC(=O)[C@H](CC(C)C)NC(=O)[C@H](CCC(=O)O)NC(=O)[C@H](CO)NC(=O)[C@H](C)NC(=O)[C@H](CCC(=O)O)NC(=O)CCCCCCCCCCCCCCCCC(=O)O)[C@@H](C)O)C(=O)NCC(=O)N[C@@H](CCCNC(=N)N)C(=O)N[C@@H](CC(C)C)C(=O)N[C@@H](CO)C(=O)N[C@@H](C)C(=O)N[C@@H](CCC(=O)O)C(=O)N[C@@H](CC(C)C)C(=O)N[C@@H](Cc1cnc[nH]1)C(=O)N[C@@H](CCC(=O)O)C(=O)N[C@@H](CC(C)C)C(=O)N[C@@H](C)C(=O)N[C@H](C(=O)N[C@@H](CC(C)C)C(=O)N1CCC[C@H]1C(=O)N[C@@H](CCCNC(=N)N)C(=O)N[C@H](C(=O)N[C@@H](CCC(=O)O)C(=O)N[C@H](C(=O)NCC(=O)N1CCC[C@H]1C(=O)N[C@@H](CCC(=O)O)C(=O)N[C@@H](CO)C(=O)N1CCC[C@H]1C(N)=O)[C@@H](C)O)[C@@H](C)O)[C@@H](C)O [Ex. #2, [N-terminal(C18 diacid)]mimylin] ({C18 diacid}-EASELSTAALGRLSAELHELATLPRTETGPESP-NH2)
